Literature values as cited in patent publication US9833455B2, “Preparation and methods of use for ortho-aryl 5-membered heteroaryl-carboxamide containing multi-targeted kinase inhibitors” (Spacefill Enterprises LLC, priority 2011, dated 2017).

Legend:
Conditions in all cases: 1 μM, duplicate, without preincubation; cited from earlier work
[1] = molecular target: T1, BRAF (Homo sapiens, UniProt P15056)
T1 construct: literature Ambit Biosciences

[2] = molecular target: T2, CDK11 (Homo sapiens, UniProt Q9BWU1)
T2 construct: literature Ambit Biosciences

[3] = molecular target: T3, DCAMKL1 (Homo sapiens, UniProt O15075)
T3 construct: literature Ambit Biosciences
T3 sequence (O15075 1-740): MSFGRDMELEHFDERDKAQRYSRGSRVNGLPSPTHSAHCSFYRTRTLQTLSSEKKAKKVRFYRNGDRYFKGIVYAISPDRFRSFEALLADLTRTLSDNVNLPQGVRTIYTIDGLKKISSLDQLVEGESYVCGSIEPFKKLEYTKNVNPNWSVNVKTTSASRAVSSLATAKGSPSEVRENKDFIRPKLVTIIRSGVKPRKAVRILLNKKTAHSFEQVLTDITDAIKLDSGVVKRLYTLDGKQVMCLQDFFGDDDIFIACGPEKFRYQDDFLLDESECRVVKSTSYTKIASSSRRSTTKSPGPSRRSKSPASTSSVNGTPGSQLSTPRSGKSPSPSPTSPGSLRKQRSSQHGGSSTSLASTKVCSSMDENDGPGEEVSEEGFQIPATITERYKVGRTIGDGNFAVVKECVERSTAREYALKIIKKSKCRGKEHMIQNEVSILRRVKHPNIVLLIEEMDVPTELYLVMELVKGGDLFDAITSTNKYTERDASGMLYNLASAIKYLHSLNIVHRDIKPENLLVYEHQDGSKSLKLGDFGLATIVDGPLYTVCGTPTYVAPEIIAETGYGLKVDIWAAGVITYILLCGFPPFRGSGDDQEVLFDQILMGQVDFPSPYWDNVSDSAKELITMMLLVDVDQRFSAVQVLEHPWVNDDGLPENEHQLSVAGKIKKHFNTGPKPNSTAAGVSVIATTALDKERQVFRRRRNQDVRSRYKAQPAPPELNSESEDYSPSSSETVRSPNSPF

[4] = molecular target: T4, ERBB2 (Homo sapiens, UniProt P04626)
T4 construct: literature Ambit Biosciences
T4 sequence (P04626 23-1255): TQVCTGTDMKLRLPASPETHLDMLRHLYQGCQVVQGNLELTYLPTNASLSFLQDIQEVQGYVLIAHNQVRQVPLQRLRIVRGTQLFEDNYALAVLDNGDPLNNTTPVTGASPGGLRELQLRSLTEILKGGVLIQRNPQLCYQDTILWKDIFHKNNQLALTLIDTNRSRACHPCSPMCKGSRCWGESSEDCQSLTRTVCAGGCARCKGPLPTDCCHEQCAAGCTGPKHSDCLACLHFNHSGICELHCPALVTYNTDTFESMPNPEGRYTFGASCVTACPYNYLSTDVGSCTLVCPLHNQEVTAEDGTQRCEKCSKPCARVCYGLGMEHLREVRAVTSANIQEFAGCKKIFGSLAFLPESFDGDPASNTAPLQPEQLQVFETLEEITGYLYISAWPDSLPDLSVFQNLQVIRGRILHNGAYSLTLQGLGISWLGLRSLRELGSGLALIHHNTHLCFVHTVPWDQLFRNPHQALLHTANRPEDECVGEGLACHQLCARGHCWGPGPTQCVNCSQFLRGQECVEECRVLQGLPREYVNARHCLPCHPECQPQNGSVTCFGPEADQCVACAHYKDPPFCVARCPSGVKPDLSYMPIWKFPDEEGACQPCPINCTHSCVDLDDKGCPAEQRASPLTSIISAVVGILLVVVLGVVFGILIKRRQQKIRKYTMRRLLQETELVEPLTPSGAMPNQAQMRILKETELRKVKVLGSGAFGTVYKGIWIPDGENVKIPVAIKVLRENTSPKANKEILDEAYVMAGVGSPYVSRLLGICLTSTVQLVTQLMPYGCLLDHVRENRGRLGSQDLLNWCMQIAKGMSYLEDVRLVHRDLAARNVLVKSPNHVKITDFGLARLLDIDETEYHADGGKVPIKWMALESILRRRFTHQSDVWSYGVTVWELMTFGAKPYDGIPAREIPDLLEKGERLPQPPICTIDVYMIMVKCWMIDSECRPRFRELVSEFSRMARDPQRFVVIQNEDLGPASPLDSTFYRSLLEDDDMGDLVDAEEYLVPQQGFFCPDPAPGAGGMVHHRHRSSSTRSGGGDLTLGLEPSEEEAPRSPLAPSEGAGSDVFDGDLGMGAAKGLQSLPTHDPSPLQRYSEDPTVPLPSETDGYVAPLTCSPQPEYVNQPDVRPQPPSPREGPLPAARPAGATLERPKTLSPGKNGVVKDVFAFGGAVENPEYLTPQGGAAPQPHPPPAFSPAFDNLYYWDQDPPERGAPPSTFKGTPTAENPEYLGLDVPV

[5] = molecular target: T5, MKNK1 (Homo sapiens, UniProt Q9BUB5)
T5 construct: literature Ambit Biosciences

[6] = molecular target: T6, p38-alpha (Homo sapiens, UniProt Q16539)
T6 construct: literature Ambit Biosciences

[7] = molecular target: T7, p38-beta (Homo sapiens, UniProt Q15759)
T7 construct: literature Ambit Biosciences
T7 sequence (Q15759 whole entry): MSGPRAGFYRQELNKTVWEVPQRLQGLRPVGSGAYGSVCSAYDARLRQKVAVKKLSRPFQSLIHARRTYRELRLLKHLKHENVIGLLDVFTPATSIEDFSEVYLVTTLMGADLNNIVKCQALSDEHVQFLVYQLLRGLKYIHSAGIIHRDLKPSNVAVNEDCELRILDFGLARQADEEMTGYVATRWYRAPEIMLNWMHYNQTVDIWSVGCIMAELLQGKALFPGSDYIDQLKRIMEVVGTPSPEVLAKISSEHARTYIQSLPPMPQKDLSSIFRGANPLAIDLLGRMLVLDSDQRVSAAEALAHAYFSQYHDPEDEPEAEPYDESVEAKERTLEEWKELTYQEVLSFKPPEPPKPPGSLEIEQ

[8] = molecular target: T8, PDGFRA (Homo sapiens, UniProt P16234)
T8 construct: literature Ambit Biosciences
T8 sequence (P16234 24-1089): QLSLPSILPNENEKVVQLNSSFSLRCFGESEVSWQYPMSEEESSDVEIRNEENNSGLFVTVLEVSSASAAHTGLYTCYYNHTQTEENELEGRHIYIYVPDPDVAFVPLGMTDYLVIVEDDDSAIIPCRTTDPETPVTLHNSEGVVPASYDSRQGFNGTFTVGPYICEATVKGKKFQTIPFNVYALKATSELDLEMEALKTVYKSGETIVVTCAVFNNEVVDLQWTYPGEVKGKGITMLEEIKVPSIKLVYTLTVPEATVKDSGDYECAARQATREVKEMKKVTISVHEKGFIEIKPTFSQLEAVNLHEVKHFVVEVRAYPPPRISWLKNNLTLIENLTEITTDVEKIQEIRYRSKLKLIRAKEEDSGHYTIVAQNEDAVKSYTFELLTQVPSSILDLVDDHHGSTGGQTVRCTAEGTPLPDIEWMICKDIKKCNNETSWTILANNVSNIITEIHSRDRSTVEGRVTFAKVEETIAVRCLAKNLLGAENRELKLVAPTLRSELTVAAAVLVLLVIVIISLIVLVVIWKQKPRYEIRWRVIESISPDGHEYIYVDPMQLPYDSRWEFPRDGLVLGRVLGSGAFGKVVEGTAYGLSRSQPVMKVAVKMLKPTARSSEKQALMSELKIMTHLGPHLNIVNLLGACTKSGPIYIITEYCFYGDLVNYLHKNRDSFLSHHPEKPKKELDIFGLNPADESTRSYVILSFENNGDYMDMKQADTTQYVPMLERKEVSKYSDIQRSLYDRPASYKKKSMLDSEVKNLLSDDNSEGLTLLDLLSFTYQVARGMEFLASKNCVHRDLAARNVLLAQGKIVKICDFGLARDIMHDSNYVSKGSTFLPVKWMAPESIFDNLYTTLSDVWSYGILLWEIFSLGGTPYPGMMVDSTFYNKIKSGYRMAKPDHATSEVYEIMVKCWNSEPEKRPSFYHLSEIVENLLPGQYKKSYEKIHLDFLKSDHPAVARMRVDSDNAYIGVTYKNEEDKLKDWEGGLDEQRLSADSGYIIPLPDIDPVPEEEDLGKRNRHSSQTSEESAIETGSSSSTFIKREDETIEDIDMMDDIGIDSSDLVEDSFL

[9] = molecular target: T9, PDGFRB (Homo sapiens, UniProt P09619)
T9 construct: literature Ambit Biosciences

[10] = molecular target: T10, PIK3CA (Homo sapiens, UniProt P42336)
T10 construct: literature Ambit Biosciences
T10 sequence (P42336 whole entry): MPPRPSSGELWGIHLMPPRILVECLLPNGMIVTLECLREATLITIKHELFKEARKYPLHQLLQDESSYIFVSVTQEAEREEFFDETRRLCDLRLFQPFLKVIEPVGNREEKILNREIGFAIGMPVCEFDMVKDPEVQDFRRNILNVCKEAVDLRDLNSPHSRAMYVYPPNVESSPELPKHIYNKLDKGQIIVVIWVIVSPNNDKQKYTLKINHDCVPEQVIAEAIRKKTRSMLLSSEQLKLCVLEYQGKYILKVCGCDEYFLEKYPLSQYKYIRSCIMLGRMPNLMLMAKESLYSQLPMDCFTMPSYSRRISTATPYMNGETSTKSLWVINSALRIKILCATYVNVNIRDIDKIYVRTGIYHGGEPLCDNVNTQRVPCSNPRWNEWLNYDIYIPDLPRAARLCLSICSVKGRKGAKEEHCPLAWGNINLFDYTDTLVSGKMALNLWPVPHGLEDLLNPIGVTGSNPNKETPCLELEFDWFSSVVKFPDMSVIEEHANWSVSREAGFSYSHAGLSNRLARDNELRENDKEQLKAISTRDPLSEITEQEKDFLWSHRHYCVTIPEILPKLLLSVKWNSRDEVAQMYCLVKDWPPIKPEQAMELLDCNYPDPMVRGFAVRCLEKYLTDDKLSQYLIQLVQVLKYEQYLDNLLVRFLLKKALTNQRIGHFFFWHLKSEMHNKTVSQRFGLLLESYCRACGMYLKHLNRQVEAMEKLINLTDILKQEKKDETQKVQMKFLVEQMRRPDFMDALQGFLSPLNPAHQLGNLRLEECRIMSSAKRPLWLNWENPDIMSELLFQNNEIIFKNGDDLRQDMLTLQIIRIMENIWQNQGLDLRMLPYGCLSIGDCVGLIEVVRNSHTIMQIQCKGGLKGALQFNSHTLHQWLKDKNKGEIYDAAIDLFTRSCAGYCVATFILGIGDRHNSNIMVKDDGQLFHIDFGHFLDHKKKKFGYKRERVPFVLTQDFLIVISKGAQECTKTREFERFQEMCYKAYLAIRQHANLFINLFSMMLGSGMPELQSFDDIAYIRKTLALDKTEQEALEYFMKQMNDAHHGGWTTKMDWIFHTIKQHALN

[11] = molecular target: T11, PLK4 (Homo sapiens, UniProt O00444)
T11 construct: literature Ambit Biosciences
T11 sequence (O00444 1-970): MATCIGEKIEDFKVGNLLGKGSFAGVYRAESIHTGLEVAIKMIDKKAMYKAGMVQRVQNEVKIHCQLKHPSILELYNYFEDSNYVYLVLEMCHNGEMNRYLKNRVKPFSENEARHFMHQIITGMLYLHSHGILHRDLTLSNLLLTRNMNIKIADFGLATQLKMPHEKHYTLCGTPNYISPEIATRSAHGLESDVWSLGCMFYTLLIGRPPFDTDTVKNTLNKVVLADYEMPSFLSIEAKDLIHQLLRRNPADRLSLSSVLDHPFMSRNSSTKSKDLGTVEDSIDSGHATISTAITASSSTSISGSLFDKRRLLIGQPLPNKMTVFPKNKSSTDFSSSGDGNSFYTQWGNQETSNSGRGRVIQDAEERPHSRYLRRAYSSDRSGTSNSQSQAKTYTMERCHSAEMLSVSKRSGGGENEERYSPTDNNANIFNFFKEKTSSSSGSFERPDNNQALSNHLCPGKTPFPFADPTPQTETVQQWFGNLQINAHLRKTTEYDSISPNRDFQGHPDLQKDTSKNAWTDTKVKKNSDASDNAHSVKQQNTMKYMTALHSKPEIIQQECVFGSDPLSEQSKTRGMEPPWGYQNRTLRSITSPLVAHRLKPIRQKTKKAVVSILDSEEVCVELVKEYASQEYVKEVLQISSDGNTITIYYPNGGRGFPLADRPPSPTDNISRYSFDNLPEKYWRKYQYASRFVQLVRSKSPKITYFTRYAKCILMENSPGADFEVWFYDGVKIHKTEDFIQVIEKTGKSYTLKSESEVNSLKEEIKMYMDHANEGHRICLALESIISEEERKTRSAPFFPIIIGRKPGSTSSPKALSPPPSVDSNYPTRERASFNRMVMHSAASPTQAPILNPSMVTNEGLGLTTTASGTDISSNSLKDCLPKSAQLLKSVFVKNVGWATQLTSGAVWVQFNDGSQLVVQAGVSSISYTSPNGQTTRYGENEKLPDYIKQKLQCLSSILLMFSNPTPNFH

[12] = molecular target: T12, RAF1 (Homo sapiens, UniProt P04049)
T12 construct: literature Ambit Biosciences

[13] = molecular target: T13, RIOK2 (Homo sapiens, UniProt Q9BVS4)
T13 construct: literature Ambit Biosciences

[14] = molecular target: T14, TYK2 (catalytic) (Homo sapiens, UniProt P29597)
T14 construct: catalytic; literature Ambit Biosciences
T14 sequence (P29597 897-1176 limits assumed): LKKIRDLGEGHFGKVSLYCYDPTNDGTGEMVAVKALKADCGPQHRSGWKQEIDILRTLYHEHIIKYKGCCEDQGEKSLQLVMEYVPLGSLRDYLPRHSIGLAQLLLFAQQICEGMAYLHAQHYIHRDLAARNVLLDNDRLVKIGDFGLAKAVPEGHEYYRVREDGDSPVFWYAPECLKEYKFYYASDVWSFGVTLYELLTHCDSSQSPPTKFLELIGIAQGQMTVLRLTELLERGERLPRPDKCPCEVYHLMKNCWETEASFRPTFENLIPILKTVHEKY

[15] = molecular target: BRAF(V600E) (Homo sapiens, UniProt P15056, V600E); parameters: literature Ambit Biosciences
Sequence of BRAF(V600E) (P15056 whole entry V600E): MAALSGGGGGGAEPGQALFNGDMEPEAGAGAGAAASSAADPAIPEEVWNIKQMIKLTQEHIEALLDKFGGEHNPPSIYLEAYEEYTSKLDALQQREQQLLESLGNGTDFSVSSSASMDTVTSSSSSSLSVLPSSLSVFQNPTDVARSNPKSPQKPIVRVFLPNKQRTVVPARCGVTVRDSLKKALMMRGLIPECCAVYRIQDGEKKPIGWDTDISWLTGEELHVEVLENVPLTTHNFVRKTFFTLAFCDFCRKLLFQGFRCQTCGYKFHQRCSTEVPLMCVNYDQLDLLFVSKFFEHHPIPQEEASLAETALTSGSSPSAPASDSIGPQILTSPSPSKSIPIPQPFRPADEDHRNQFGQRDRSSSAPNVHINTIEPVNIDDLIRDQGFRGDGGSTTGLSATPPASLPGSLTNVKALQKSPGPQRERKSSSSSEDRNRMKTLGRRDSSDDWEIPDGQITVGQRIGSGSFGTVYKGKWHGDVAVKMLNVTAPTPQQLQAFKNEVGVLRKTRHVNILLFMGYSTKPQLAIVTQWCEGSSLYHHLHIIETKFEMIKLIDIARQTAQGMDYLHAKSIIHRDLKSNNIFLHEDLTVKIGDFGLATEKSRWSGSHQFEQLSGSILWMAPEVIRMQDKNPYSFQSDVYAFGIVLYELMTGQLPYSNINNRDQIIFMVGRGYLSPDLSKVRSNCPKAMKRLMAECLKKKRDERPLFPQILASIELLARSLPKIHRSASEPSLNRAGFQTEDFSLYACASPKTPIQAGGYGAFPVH

T1 sequence (P15056 whole entry): as the sequence (P15056 whole entry V600E) above, with E600V counted along it

## Cc1ccc(NC(=O)c2[nH]c(C(F)(F)F)nc2-c2ccc(F)cc2)cc1Nc1ccc2ncn(C)c(=O)c2c1 [KIN-035]
[1]
  inhibition of BRAF: XXXX (XXXX > 90% @ 1 μM)
[2]
  inhibition of CDK11: XX (XX > 50% @ 1 μM)
[3]
  inhibition of DCAMKL1: X (X > 25% @ 1 μM)
[4]
  inhibition of ERBB2: X (X > 25% @ 1 μM)
[5]
  inhibition of MKNK1: XX (XX > 50% @ 1 μM)
[6]
  inhibition of p38-alpha: XXXX (XXXX > 90% @ 1 μM)
[7]
  inhibition of p38-beta: X (X > 25% @ 1 μM)
[8]
  inhibition of PDGFRA: XX (XX > 50% @ 1 μM)
[9]
  inhibition of PDGFRB: XXX (XXX > 75% @ 1 μM)
[10]
  inhibition of PIK3CA: X (X > 25% @ 1 μM)
[11]
  inhibition of PLK4: X (X > 25% @ 1 μM)
[12]
  inhibition of RAF1: XXXX (XXXX > 90% @ 1 μM)
[13]
  inhibition of RIOK2: X (X > 25% @ 1 μM)
[14]
  inhibition of TYK2 (catalytic): X (X > 25% @ 1 μM)
[15]
  inhibition of BRAF(V600E): XXXX (XXXX > 90% @ 1 μM)

## Cc1ccc(-c2nc(C(F)(F)F)[nH]c2C(=O)Nc2ccc(C)c(Nc3ccc4ncn(C)c(=O)c4c3)c2)cc1F [KIN-038]
[1]
  inhibition of BRAF: XXX (XXX > 75% @ 1 μM)
[2]
  inhibition of CDK11: X (X > 25% @ 1 μM)
[3]
  inhibition of DCAMKL1: X (X > 25% @ 1 μM)
[4]
  inhibition of ERBB2: X (X > 25% @ 1 μM)
[5]
  inhibition of MKNK1: X (X > 25% @ 1 μM)
[6]
  inhibition of p38-alpha: XX (XX > 50% @ 1 μM)
[7]
  inhibition of p38-beta: X (X > 25% @ 1 μM)
[8]
  inhibition of PDGFRA: XX (XX > 50% @ 1 μM)
[9]
  inhibition of PDGFRB: XX (XX > 50% @ 1 μM)
[10]
  inhibition of PIK3CA: X (X > 25% @ 1 μM)
[11]
  inhibition of PLK4: X (X > 25% @ 1 μM)
[12]
  inhibition of RAF1: XXXX (XXXX > 90% @ 1 μM)
[13]
  inhibition of RIOK2: X (X > 25% @ 1 μM)
[14]
  inhibition of TYK2 (catalytic): X (X > 25% @ 1 μM)
[15]
  inhibition of BRAF(V600E): XXXX (XXXX > 90% @ 1 μM)
